Experimental data from patent US8465758B2, “Drug delivery from stents” (Abbott Laboratories, priority 2001, dated 2013).

Assays:
[1] = system: coronary arteries of farm swine; assay: Re-endothelialisation of batimastat-loaded BiodivYsio stents (SEM); format: in vivo; details: 5 days
Text: BiodivYsio stents (control, low dose batimastat and high dose batimastat) were implanted into healthy farm swine. After 5 days the animals were sacrificed and the stents studied for endothelialisation using scanning electron microscopy.
The stents were implanted into the coronary arteries of farm swine (2 per animal, each in different arteries). After sacrifice, the vessels were excised and trimmed of all extraneous tissue, washed in buffer, and fixed in 2.5% glutaraldehyde at pH 7.4. Fixation was carried out for a minimum of 24-48 hours in 2.5% glutaraldehyde. The section of artery was rinsed in 0.1M cacodylate buffer pH 7.4. The arteries were shipped in 0.1M cacodylate buffer pH 7. The vessels were required to be left whole, i.e. without longitudinal transection. A small V was marked in the proximal end of the vessel to determine vessel orientation. SEM analysis was carried out on three sections of the stented artery and at 2 different magnifications (high and low). The analysis concentrated on the rate and extent of re-endothelisation of the stent struts and the presence of any cellular/biological debris within the stented segment of artery.

Yucatan minipigs = assay: 3-month pre-clinical evaluation (QCA stenosis); format: in vivo; details: 3 months, not statistically significant (p=0.15)
Text: After 3 months a trend in favour of the treatment groups was found, with an indication of a dose-response relationship shown in FIG. 5. The stenosis was reduced by 20% and 34% in the low and high dose groups respectively compared to the control.

[2] = Solubility of batimastat in ethanol (100%); format: physicochemical
Text: This was by preparation of a series of solutions outlined in Table 1

[3] = Batimastat elution from stents in PBS, non flow system; format: physicochemical; details: coated stents loaded from methanol, after 1 hour, based on total amount loaded
Procedure: Elution studies were carried out at 25° C. for up to 1 hour in gently agitated PBS. […] At various time intervals a I ml aliquot was removed and replaced with 1 ml fresh PBS. The stents and water aliquots were measured, see section 1.1.4, to give the amount of drug eluted and the amount of drug remaining on the stents, see section 1.2.1 for results. Samples of eluent from elution studies were injected directly into the system. The sensitivity of the method was 0.010 ppm (0.010 μg/ml).

[4] = Pharmacokinetic study, 14C batimastat-loaded BiodivYsio stents in iliac arteries; format: in vivo, New Zealand white rabbit; details: rabbit iliac arteries, 28 days post-implantation
Text: The pharmacokinetic studies were initiated to investigate the deposition of drug from the batimastat-loaded BiodivYsio stent.

farm swine = assay: One-month pre-clinical assessment (QCA, histomorphometry, histology); format: in vivo; details: low dose 0.30 μg per mm^2 of stent, 1 month, control 4.0
Text: A total of 24 stents were implanted in 12 farm swine pigs for 1 month. […] The higher dose was set at the maximum quantity that could be loaded onto the stent.

[5] = P is the partition coefficient; cited from earlier work

Structure (SMILES)	Effect on endothelialisation process in-vivo ([1]; high dose 115.3±16.1 μg per 15 mm stent)	Effect on endothelialisation process in-vivo ([1]; low dose 34.2±1.6 μg per 15 mm stent)	Reduction of stenosis compared to the control (QCA) (Yucatan minipigs; high dose 0.30±0.13 μg per mm^2 of stent) [%]	Reduction of stenosis compared to the control (QCA) (Yucatan minipigs; low dose 0.03±0.01 μg per mm^2 of stent) [%]	Solubility ([2]; 1.05 mg per ml batimastat in ethanol (100%))	Solubility ([2]; 1.13 mg per ml batimastat in ethanol (100%))	Solubility ([2]; 2.6 mg per ml batimastat in ethanol (100%))	Batimastat remaining on the stents [3] [%]	Loaded drug eluted from stent [4] [%]	Intimal area (farm swine)	log P [5]
CNC(=O)[C@H](Cc1ccccc1)NC(=O)[C@H](CC(C)C)[C@H](CSc1cccs1)C(=O)NO (relative stereo) [batimastat, (2R-(1(S*),2R*,3S*))—N4-hydroxy-N1-(2-(methylamino)-2-oxo-1-(phenylmethypethyl)-2-(2-methylpropyl)-3-((thienylthio)methyl)butanediamide]	did not affect the endothelialisation process	did not affect the endothelialisation process	34	20	clear suspension	fine suspension	white suspension	44	~95	2.5	
C[C@@H]1C[C@H]2[C@@H]3CCC4=CC(=O)C=C[C@]4(C)[C@@]3(F)[C@@H](O)C[C@]2(C)[C@@]1(O)C(=O)CO [dexamethasone]											2.55
